Tests used:
[1] = cited from earlier work
[2] = design: method as in PMID 24295085; conditions: human lung and pulmonary microsomes; cited from earlier work
[3] = design: method as in PMID 19819331; conditions: cited from earlier work
[4] = Pharmacokinetic study of indacaterol in rat lung tissues (MISPE, UPLC); format: in vivo, male Wistar rats; conditions: rat lungs
Protocol: AUC was calculated using the trapezoidal rule where, AUC 0−t was determined by summing the areas of consecutive trapezoids formed by plotting drug concentration versus time[36]. The elimination rate constant was estimated from the least-squares regression slope of the terminal lung concentrations by multiplying the negative slope by 2.303[36]. The AUC 0−inf was calculated using Eq. (9)[36]:9 [drawing 9]
where, Ct is the last lung concentration measured. The t1/2 was calculated using Eq. (10)[36]:10 [drawing 10]
The rats were divided into eight sampling time points (n = 3/sampling time point) representing different time intervals (0.0, 5.0, 15.0, 30.0, 60.0, 180.0, 360.0 and 1440.0 min) for the pharmacokinetic study. Except for the zero-time sampling point; where rats were not administered the drug and were used for bioanalytical validation; each rat in each sampling time point was administered one inhalation capsule containing 150 µg of indacaterol using a powder administration device for animals (Aptar Pharma, Le Prieure, Le Neubourg, France). The powder administration device was designed to deliver a uniform dose of dry powder inhalers into the lungs of rats.
At each time interval, three rats were subjected to euthanasia in the euthanasia chamber using carbon dioxide gas inhalation, after being unconscious, the rats were subjected to decapitation and their lungs were separated and cut into small slices to facilitate homogenization. Then, the lung tissues were homogenized for 10 min using a homogenizer placed in an ice jacket with 2.0 mL of PBS. The homogenized samples were then centrifuged, and the supernatant was separated and loaded into MISPE cartridge following the optimized MISPE steps. The drug was eluted in 1.0 mL of the eluent. Then, 10.0 µL of salbutamol stock solution was added to the eluent as an IS, and the eluent was then injected into UPLC. The same procedure was repeated at each time interval. Dead animal bodies were kept in biohazard bags in -20^ºC freezer and finally incinerated by specialized waste disposal companies.

[5] = Solubility of indacaterol in solvents (porogen and washing solvent choice); format: physicochemical
[6] = Stability of lung samples spiked with indacaterol standard; format: physicochemical, rat; conditions: for Short-term stability, % deviation from fresh sample: room temperature 2 h, lung sample; for Long-term stability, % deviation from fresh sample: -80 °C 3 weeks; for Auto-sampler stability, % deviation from fresh sample: autosampler 30°C 6 h; for Freeze and thaw stability, % deviation from fresh sample: three cycles each of 24 h
Protocol: Regarding the preparation of lung tissue samples, three non-medicated male rats were sacrificed by decapitation and their whole lungs were harvested. The lungs were cut into small slices and mixed with 2.0 mL of PBS, homogenized in an ice jacket for 10.0 min. Subsequently, 1800.0 µL of the homogenate was collected and spiked with 200.0 µL of indacaterol solution with concentrations of 1.0, 3.0, 350.0, and 700.0 µg mL^− 1 separately, to achieve the concentration of the LLOQ and QCs per 1.0 mL of the lung homogenate. Samples were centrifuged at 3000 rpm for 10 min and 1.0 mL of the supernatant was passed through the MISPE cartridge according to the extraction protocol outlined in section "Preparation and optimization of MISPE". Finally, 10.0 µL of salbutamol stock standard solution was added to the eluent as IS, and the samples were injected into the UPLC for analysis.
Samples stabilities were assessed by injecting LLOQ and QCs six times and compared to freshly prepared samples using the following stability conditions:
Samples were left at room temperature for a time exceeding that required for sample preparation (2 h).
Samples were left in autosampler (30°C) for 6 h; expected time of samples storage in autosampler before injection. Then, samples were injected.
Samples were subjected to three cycles of freeze and thaw each of 24 h and the samples were kept under the same conditions as during the analysis.
Samples were stored at -80^ºC over a period exceeding that required for the whole experiment (3 weeks).
The results of all stability conditions were evaluated using Eq. (2). The deviation should not exceed ± 15.0%.2 [drawing 2]

[7] = male, Wistar, lung, inhaled or intranasal, 150 ug, single inhaled capsule 150 µg, mean ± SD

CCc1cc2c(cc1CC)CC(NC[C@H](O)c1ccc(O)c3[nH]c(=O)ccc13)C2 [indacaterol, 5-[(1R)-2-(5,6-diethyl-indan-2-ylamino)-1-hydroxy-ethyl]−8-hydroxy-1H-quinolin-2-one]
time to enter the bloodstream after inhalation ([1]; after being inhaled): ≤ 5 min | time to highest blood concentration ([1]; after entering the bloodstream, at very low doses): approximately 15 min | absolute bioavailability ([1]; inhaled): 45% | fraction of systemically available indacaterol due to pulmonary absorption (Flung) ([1]; inhaled): 74% | time to steady state ([1]; once-daily inhalation): 12 days | metabolism by UGT1A1 and CYP3A4 in the lung [2]: did not detect any apparent metabolism | lipophilicity [3]: high | binding affinity for raft micro-domains compared to other β2 agonists ([3]; plasma membrane of airway smooth muscle): two-fold higher | Cmax ([4]; male, Wistar, lung, inhaled or intranasal, 150 ug, single inhaled Onbrez Breezhaler capsule 150 µg indacaterol, n = 3 per sampling time point, mean ± SD): 51 ± 2.81 µg/mL | AUC(0-inf) [4, 7]: 542 ± 5.25 µg·h/mL | Tmax [4, 7]: 4.98 ± 0.06 min | half-life ([4]; male, Wistar, lung, inhaled or intranasal, 150 ug, single inhaled capsule 150 µg, mean ± SD, read-out: t1/2 (0–24) (converted)): 48.51 ± 0.012 h | AUC(0-t) ([4]; male, Wistar, lung, inhaled or intranasal, 150 ug, zero to 24 h, single inhaled capsule 150 µg, mean ± SD): 175.9 ± 1.05 µg·h/mL | onset of lung deposition ([4]; single inhaled capsule 150 µg): 5 min | Elimination rate constant ([4]; single inhaled capsule 150 µg, mean ± SD): 0.014 ± 0.00012 h^− 1 | solubility in acetonitrile and chloroform ([5]; tested as porogen): insolubility | solubility in methanol ([5]; washing solvent discussion): high | Short-term stability, % deviation from fresh sample ([6]; LLOQ 0.10 µg mL^-1): -11.30±3.50% | Long-term stability, % deviation from fresh sample ([6]; LLOQ): -13.10±5.89% | Auto-sampler stability, % deviation from fresh sample ([6]; LLOQ): -12.05±4.20% | Freeze and thaw stability, % deviation from fresh sample ([6]; LLOQ): -13.26±4.85% | Short-term stability, % deviation from fresh sample ([6]; QCH 70.0 µg mL^-1): -2.89±1.94% | Long-term stability, % deviation from fresh sample ([6]; QCH): -3.28±1.32% | Auto-sampler stability, % deviation from fresh sample ([6]; QCH): -1.71±2.67% | Freeze and thaw stability, % deviation from fresh sample ([6]; QCH): -2.20±2.25% | Short-term stability, % deviation from fresh sample ([6]; QCL 0.30 µg mL^-1): -5.74±2.25% | Long-term stability, % deviation from fresh sample ([6]; QCL): -4.40±3.88% | Auto-sampler stability, % deviation from fresh sample ([6]; QCL): -5.98±2.58% | Freeze and thaw stability, % deviation from fresh sample ([6]; QCL): -4.80±3.26% | Short-term stability, % deviation from fresh sample ([6]; QCM 35.0 µg mL^-1): -4.14±2.61% | Long-term stability, % deviation from fresh sample ([6]; QCM): -3.90±2.22% | Auto-sampler stability, % deviation from fresh sample ([6]; QCM): -4.02±2.34% | Freeze and thaw stability, % deviation from fresh sample ([6]; QCM): -4.30±2.81%
